# Test results as given in patent publication US9877956B2, “Antiviral compounds and methods of use thereof” (Trana Discovery, Inc., priority 2014, dated 2018).
# “And” between values parts separate entries of the source, which are not always exact repeats. Equal values may be shown once.
# Tests used:
# Format in all cases: cell-based
# [1] = Cytotoxicity in human PBMCs (XTT); details: PHA-P stimulated PBMCs pooled from three donors; human PBMCs, XTT
# Procedure: (§1) In these studies, PHA-P stimulated PBMCs from three donors were pooled together and re-suspended in fresh tissue culture medium at 1×10^6 cells/mL and plated in the interior wells of a 96 well round bottom microplate at 50µl/well. A 100µL volume of 9 concentrations of compound serially diluted were transferred to the round-bottom 96 well plate containing the cells in triplicate. Fifty microliters (µL) of HIV-1 at a pre-determined dilution was added. Each plate contained cell control wells and virus control wells in parallel with the experimental wells. After 7 days in culture, efficacy was evaluated by measuring the reverse transcriptase in the culture supernatants and the cells were stained with the tetrazolium dye XTT to evaluate cytotoxicity.
# [2] = system: HUMAN PBMCS; experiment: Cytotoxicity in human PBMCs (XTT); details: for TOXICITY VALUES (XTT - O.D. @ 450/650 nm), SAMPLE: individual samples
# Procedure: as §1
# [3] = system: HIV-1 92/HT/599; experiment: HIV-1 92/HT/599 replication in human PBMCs, reverse transcriptase in culture supernatants (RLU)
# Procedure: as §1
structure (smiles),measurement,setting,value
"Cc1cn([C@H]2C[C@H](N=[N+]=[N-])[C@@H](CO)O2)c(=O)[nH]c1=O [AZT, Zidovudine, reference compound]",CC50 at 7 days,[1],> 1 µM
same,% Cell Viability,[2]; 0.003 μM,114.74%
same,"TOXICITY VALUES (XTT - O.D. @ 450/650 nm), SAMPLE",[2]; 0.003 μg/ml (so in the source),1.2555 O.D. and 1.2949 O.D. and 1.3058 O.D.
same,% Cell Viability,[2]; 0.01 μM,123.74%
same,"TOXICITY VALUES (XTT - O.D. @ 450/650 nm), SAMPLE",[2]; 0.01 μg/ml (so in the source),1.2369 O.D. and 1.6369 O.D.
same,% Cell Viability,[2]; 0.032 μM,111.47%
same,"TOXICITY VALUES (XTT - O.D. @ 450/650 nm), SAMPLE",[2]; 0.032 μg/ml (so in the source),1.2990 O.D. and 1.2908 O.D. and 1.1569 O.D.
same,% Cell Viability,[2]; 0.32 μM,92.20%
same,"TOXICITY VALUES (XTT - O.D. @ 450/650 nm), SAMPLE",[2]; 0.32 μg/ml (AZT table),0.9607 O.D. and 0.9984 O.D. and 1.1398 O.D.
same,% Cell Viability,[2]; 1 μM,81.66%
same,"TOXICITY VALUES (XTT - O.D. @ 450/650 nm), SAMPLE",[2]; 1 μg/ml (AZT table),1.1224 O.D. and 0.5742 O.D. and 1.0479 O.D.
same,TC 25%,"[2]; human PBMCs, XTT",>1.0 µM
same,TC 95%,"[2]; human PBMCs, XTT",>1.0 µM
same,% Virus Control,[3]; 0.003 μM,28.53%
same,Antiviral Test Values Mean RLU,[3]; 0.003 μM,5503.7 RLU
same,% Virus Control,[3]; 0.01 μM,10.36%
same,Antiviral Test Values Mean RLU,[3]; 0.01 μM,1999.0 RLU
same,% Virus Control,[3]; 0.032 μM,13.16%
same,Antiviral Test Values Mean RLU,[3]; 0.032 μM,2538.7 RLU
same,% Virus Control,[3]; 0.32 μM,0.99%
same,Antiviral Test Values Mean RLU,[3]; 0.32 μM,190.7 RLU
same,% Virus Control,[3]; 1 μM,0.56%
same,Antiviral Test Values Mean RLU,[3]; 1 μM,112.7 RLU
same,EC 25%,"[3]; HIV-1 92/HT/599, human PBMCs",<0.003 µM
same,EC 95%,"[3]; HIV-1 92/HT/599, human PBMCs",0.0990 µM
same,EC50,"[3]; Human immunodeficiency virus 1, PBMC, read-out: EC50 (EC 50%), HIV-1 92/HT/599, human PBMCs",< 0.003 µM
